# Laboratory results reported in US10251889B2, “Substituted pyrazolo[1,5-a]pyrimidine compounds as Trk kinase inhibitors” (Array BioPharma, Inc., priority 2009, dated 2019).
# Read-outs that look alike come from different tables or passages of the source.
# Key:
# Format in all cases: biochemical
# [1] = molecular target: Jak2 (human Jak2 kinase domain, amino acids 808-1132) (Homo sapiens (Human), UniProt O60674); test: Jak2 inhibition assay (Omnia kinase assay); settings: 1000 nM test compound
# [2] = molecular target: Jak1 (GST-tagged human Jak1 kinase domain, amino acids 866-1154) (Homo sapiens (Human), UniProt P23458); test: Jak1 inhibition assay (Omnia kinase assay); settings: read-out: Jak1 (% inhibition at 1000 nM); Table 2; 1000 nM test compound
# Sequence of Jak1 (GST-tagged human Jak1 kinase domain, amino acids 866-1154) (P23458 866-1154): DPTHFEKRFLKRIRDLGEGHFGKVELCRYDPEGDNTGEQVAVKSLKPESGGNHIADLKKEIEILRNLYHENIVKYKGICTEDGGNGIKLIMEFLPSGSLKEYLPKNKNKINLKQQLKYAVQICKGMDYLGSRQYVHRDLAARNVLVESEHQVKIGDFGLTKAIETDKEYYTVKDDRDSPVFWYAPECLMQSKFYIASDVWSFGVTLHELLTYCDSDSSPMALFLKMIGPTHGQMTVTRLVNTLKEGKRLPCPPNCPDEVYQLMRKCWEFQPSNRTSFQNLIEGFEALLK
# Description: (§1) The assays described in Examples C, D, E and F for the determination of JAK1, JAK2, JAK3 and Tyk2 kinase activity, respectively, utilized the Omnia® Kinase fluorescence peptide substrate-based technology (Invitrogen). […] The reactions were therefore read at excitation 360 nm and emission was measured at 485 nm every 50 seconds for 45 minutes using a PerkinElmer EnVision Multilabel Plate Reader.
# (§2) The final buffer conditions for each of the JAK1, JAK2, JAK3 and Tyk2 assays were as follows: 25 mM HEPES, pH 7.4, 10 mM MgCl2, 0.01% Triton X-100 and 1 mM DTT.
# (§3) Compounds were prepared at 50× the final concentration in DMSO by conducting 3-fold serial dilutions from a 500-μM or 1000-μM intermediate dilution to give a 10-point dosing curve having a high dose of 10 or 20 μM. Two-μL aliquots of these were transferred to a fresh plate for a ten-fold intermediate dilution with assay buffer. Five-μL aliquots of the diluted compounds were then transferred to 20-μL of assay mixtures described in Examples C, D, E and F for a final concentration of DMSO of 2%. A standard or reference compound was typically included on each assay plate to validate that plate. For each plate, percent of control (POC) values were calculated for each well according to the following equation:
# (§4) where Xmax=Average Uninhibited Controls • Xmin=Average Background IC50's were estimated from the POC's using a standard 4-parameter logistic model:
# (§5) where A=Minimum Y (Bottom Asymptote) • B=Maximum Y (Top Asymptote) • C=EC50 • D=Slope Factor • X=Compound Concentration (nM) • Y=POC
# (§6) The IC50 is defined as the concentration of inhibitor at which the POC equals 50 for the fitted curve.
# Compounds of Formula I were screened for their ability to inhibit Jak1 using the general enzyme inhibition assay method, in which the assay mixture contained 500 μM ATP, 8 μM Omnia® Y12 peptide (Catalog # IVGN KPZ3121C; Invitrogen Corporation, Carlsbad, Calif.) and 5 nM Jak1 in a total volume of 20 μL. […] (catalog # IVGN PV4774).
# [3] = molecular target: Jak3 (GST-tagged human Jak3 kinase domain, amino acids 781-1124) (Homo sapiens (Human), UniProt P52333); test: Jak3 inhibition assay (Omnia kinase assay); settings: read-out: Jak3 (% inhibition at 1000 nM); Table 2; 1000 nM test compound
# Sequence of Jak3 (GST-tagged human Jak3 kinase domain, amino acids 781-1124) (P52333 781-1124): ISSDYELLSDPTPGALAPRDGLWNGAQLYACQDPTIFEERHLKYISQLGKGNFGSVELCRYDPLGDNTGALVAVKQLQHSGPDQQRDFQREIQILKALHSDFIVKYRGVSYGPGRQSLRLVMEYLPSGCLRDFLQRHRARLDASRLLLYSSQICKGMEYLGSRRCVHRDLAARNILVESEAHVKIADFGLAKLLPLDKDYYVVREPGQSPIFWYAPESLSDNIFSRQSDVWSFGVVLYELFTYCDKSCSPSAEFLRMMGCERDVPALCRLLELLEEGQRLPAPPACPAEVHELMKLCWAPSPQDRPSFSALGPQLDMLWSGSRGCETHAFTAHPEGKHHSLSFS
# Description: as §1, §2, §3, §4, §5, §6
# Compounds of Formula I were screened for their ability to inhibit Jak3 using the general enzyme inhibition assay method, in which the assay mixture contained 500 μM ATP, 10 μM Omnia® Y7 peptide (Catalog # IVGN KNZ3071C, Invitrogen Corporation, Carlsbad, Calif.) and 1.5 nM Jak3 in a total volume of 20 μL. GST-tagged human Jak3 kinase domain comprising amino acids 781-1124 was purchased from Invitrogen Corporation, Carlsbad, Calif. (catalog # IVGN PV3855).
# [4] = molecular target: Tyk2 (human Tyk2 kinase domain, amino acids 886 to 1187) (Homo sapiens (Human), UniProt P29597); test: Tyk2 inhibition assay (Omnia kinase assay); settings: read-out: Tyk2 (% inhibition at 1000 nM); Table 2; 1000 nM test compound
# Sequence of Tyk2 (human Tyk2 kinase domain, amino acids 886 to 1187) (P29597 886-1187): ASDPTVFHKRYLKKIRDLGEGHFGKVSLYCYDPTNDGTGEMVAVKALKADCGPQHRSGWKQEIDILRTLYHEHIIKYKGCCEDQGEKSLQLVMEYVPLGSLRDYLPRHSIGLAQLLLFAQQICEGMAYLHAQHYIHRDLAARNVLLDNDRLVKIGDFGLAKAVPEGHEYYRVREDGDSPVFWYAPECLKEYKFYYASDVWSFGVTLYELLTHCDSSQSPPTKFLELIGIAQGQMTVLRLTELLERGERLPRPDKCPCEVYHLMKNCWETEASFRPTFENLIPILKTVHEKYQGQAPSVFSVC
# Description: as §1, §2, §3, §4, §5, §6
# Compounds of Formula I were screened for their ability to inhibit Tyk2 using the general enzyme inhibition assay method, in which the assay mixture contained 500 μM ATP, 8 μM Omnia® Y12 peptide (Catalog # IVGN KPZ3121C; Invitrogen Corporation, Carlsbad, Calif.) and 1 nM Tyk2 in a total volume of 20 μL. Human Tyk2 kinase domain, comprising amino acids 886 to 1187 with 10 additional histidine residues (histidine tag) on the carboxy terminus, was expressed and purified from baculovirus in-house at Array BioPharma Inc. (Boulder, Colo.). The histidine tag was cleaved after purification using standard conditions.
# [5] = read-out: Jak2 (% inhibition at 1000 nM), Table 2
# [6] = read-out: Jak2 Enzyme (% inhibition at 1000 nM), Table 1
# Sequence of Jak2 (human Jak2 kinase domain, amino acids 808-1132) (O60674 808-1132): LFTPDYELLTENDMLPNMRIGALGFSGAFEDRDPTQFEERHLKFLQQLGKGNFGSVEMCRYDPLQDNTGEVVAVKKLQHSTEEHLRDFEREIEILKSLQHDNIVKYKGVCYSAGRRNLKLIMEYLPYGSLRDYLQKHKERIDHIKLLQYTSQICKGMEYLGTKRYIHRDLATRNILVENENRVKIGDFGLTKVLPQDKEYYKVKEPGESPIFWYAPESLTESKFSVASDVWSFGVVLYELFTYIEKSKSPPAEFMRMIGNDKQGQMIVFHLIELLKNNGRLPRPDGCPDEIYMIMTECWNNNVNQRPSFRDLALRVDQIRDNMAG
SMILES,"inhibition at 1 µM [1, 5] [%]","inhibition at 1 µM [1, 6] [%]",inhibition at 1 µM [2] [%],inhibition at 1 µM [3] [%],inhibition at 1 µM [4] [%]
"CC(C)NC(=O)c1cnn2ccc(N3CCC[C@@H]3c3cncc(F)c3)nc12 [Example 93, (R)-5-(2-(5-fluoropyridin-3-yl)pyrrolidin-1-yl)-N-isopropylpyrazolo[1,5-a]pyrimidine-3-carboxamide]",42.2,34.7,19.7,10.6,17.2
"C[C@H](NC(=O)c1cnn2ccc(N3CCC[C@@H]3c3cncc(F)c3)nc12)C1CC1 [Example 124, N-((S)-1-cyclopropylethyl)-5-((R)-2-(5-fluoropyridin-3-yl)pyrrolidin-1-yl)pyrazolo[1,5-a]pyrimidine-3-carboxamide]",72.3,53.3,36.4,7.2,16.2
"C[C@@H](NC(=O)c1cnn2ccc(N3CCC[C@@H]3c3cncc(F)c3)nc12)C1CC1 [Example 123, N-((R)-1-cyclopropylethyl)-5-((R)-2-(5-fluoropyridin-3-yl)pyrrolidin-1-yl)pyrazolo[1,5-a]pyrimidine-3-carboxamide]",49.1,38.8,22,8.9,14.4
"CNC(=O)c1cnn2ccc(N3CCC[C@@H]3c3cncc(F)c3)nc12 [Example 114, (R)-5-(2-(5-fluoropyridin-3-yl)pyrrolidin-1-yl)-N-methylpyrazolo[1,5-a]pyrimidine-3-carboxamide]",15.6,5,10.9,8.5,11.4
"O=C(NC1CC1)c1cnn2ccc(N3CCC[C@@H]3c3cncc(F)c3)nc12 [Example 52, (R)—N-cyclopropyl-5-(2-(5-fluoropyridin-3-yl)pyrrolidin-1-yl)pyrazolo[1,5-a]pyrimidine-3-carboxamide]",13,9.4,8.6,0.8,13.8
"O=C(NCC1CC1)c1cnn2ccc(N3CCC[C@@H]3c3cncc(F)c3)nc12 [Example 106, (R)-N-(cyclopropylmethyl)-5-(2-(5-fluoropyridin-3-yl)pyrrolidin-1-yl)pyrazolo[1,5-a]pyrimidine-3-carboxamide]",21,8,8.2,9.7,14.8
"NC(=O)c1cnn2ccc(N3CCC[C@@H]3c3cc(F)ccc3F)nc12 [Example 30, (R)-5-(2-(2,5-difluorophenyl)pyrrolidin-1-yl)pyrazolo[1,5-a]pyrimidine-3-carboxamide]",30.4,25.7,13.4,2.9,11.3
"COc1ncc(F)cc1[C@H]1CCCN1c1ccn2ncc(C(=O)N[C@H]3CC[C@H](O)CC3)c2n1 [Example 140, 5-((R)-2-(5-fluoro-2-methoxypyridin-3-yl)pyrrolidin-1-yl)-N-((trans)-4-hydroxycyclohexyl)pyrazolo[1,5-a]pyrimidine-3-carboxamide]",98.5,90.1,64.2,20.2,34.8
"Cc1ncc(F)cc1[C@H]1CCCN1c1ccn2ncc(C(=O)NC3(C)CC3)c2n1 [Example 190, (R)-5-(2-(5-fluoro-2-methylpyridin-3-yl)pyrrolidin-1-yl)-N-(1-methylcyclopropyl)pyrazolo[1,5-a]pyrimidine-3-carboxamide]",33.9,28.4,14.3,7.2,13.4
